# Laboratory results as given in patent publication US7910723B2, “IG20 splice variants therapeutics for cancer” (The Board of Trustees of the University of Illinois, priority 2006, dated 2011).
# Columns and labels:
# Type in all cases: cell-based
# caspase-8 = test: Immunoblot of caspase-8 processing in transduced PA-1 cells; conditions: PA-1, 48 h post-transduction
# Experimental: To gain insight into the mechanism underlying MADD-mediated cell survival, whether caspases were activated upon abrogation of MADD expression examined. HeLa cells and PA-1 cells were collected 48 h post-transduction and probed for caspase-8 and FADD, which are components of the DISC. […] TRAIL treatment results in recruitment of procaspase-8 to the receptors followed by its cleavage resulting in its activation. The cleaved intermediate fragments (p43/p41) and the catalytically active subunits of caspase-8 (p18) were detected upon TRAIL treatment. Caspase-8 is the initiator caspase that can cause activation of the effector caspase-3. A decrease in the amount of pro-caspase-3 indicates its cleavage to form active caspase-3 only in MADD-depleted cells.
# Immunoblotting. The membranes were blocked in 5% non-fat dry milk in PBS-Tween (PBS with 0.05% Tween 20) for 1 hour. Primary antibodies were used at a concentration of 1 μg/mL and the secondary antibodies were used at a 1:10000 concentration. The blots were developed by enhanced chemiluminescence according to the manufacturer's protocol (Pierce Biotechnology Inc., Rockford, Ill.).
# HeLa cells = test: Spontaneous apoptosis of HeLa cells (Hoechst nuclear condensation, TMRM mitochondrial depolarization); conditions: 72 hours post-transduction
# Experimental: FIG. 1 illustrates effect of down-modulation of IG20-SVs in HeLa cells. (A) Summary of results showing percentage of cells with increased nuclear condensation as measured by Hoechst staining from three independent experiments. The P value was <0.005 for all test groups. Hoechst Staining-72 hours post-transduction was performed and HeLa cells were collected and stained with 1 μg/mL of Hoechst and subjected to FACS analysis. Percentages of highly positive cells (apoptotic cells) are indicated on the histograms. (B) Summary of results showing percentage of cells with increased mitochondrial depolarization from three independent experiments. The P value was <0.005 for all test groups. The data were collected from only GFP positive cells. […] Loss of staining as a marker of mitochondrial depolarization was detected by FACS.
# Spontaneous cell death was determined by nuclear condensation (Hoechst 33342) and loss of mitochondrial membrane potential (TMRM staining) (FIG. 1A-B). […] Whether the underlying cause of increased spontaneous apoptosis was similar to that noted after induction of apoptosis by the extrinsic (caspase-8 activation) or the intrinsic (caspase-9 activation) pathway was analyzed by determining the percentage of cells that harbored active caspases 8 and 9 using flow cytometry.
# Hoechst Staining. […] Cells with condensed chromatin were analyzed using a BD-LSR (Becton Dickinson, N.J.). […]
# MADD = test: Phosphorylation of endogenous MADD in HeLa cells (anti-phospho antibodies); conditions: LY 10 μM 1 h, IGF-1 150 ng/ml 20 minutes
# 14-3-3 = test: Association of endogenous MADD with 14-3-3 in HeLa cells (immunoprecipitation); conditions: LY 10 μM 1 h
# Experimental: (A) Cellular distributions of wtMADD and MADD3A. HEK293 cells were transfected with wtMADD or MADD3A. 36 h after transfection, the cells were harvested and membrane andcytosolic fractions were prepared. Immunoblotting was performed using an anti-YFP antibody. Actin and caveolin-1 were used as loading controls. (B) […]. HEK293 cells were transfected with wtMADD or MADD3A. 36 h after transfection, the cells were harvested for immunoprecipitation using an anti-14-3-3 antibody followed by immunoblotting using an anti-YFP antibody for detecting exogenous MADD. The membrane was reprobed with an anti-14-3-3 antibody to show protein loading. (C) Inhibition of PI3K can lead to the association of wtMADD with 14-3-3. HEK293 cells were transfected with wtMADD. Cells were serum starved for 20 h and treated with LY (10 μM) for 1 h. Immunoprecipitation was performed using an anti-14-3-3 antibody, followed by immunoblotting using an anti-YFP or an anti-14-3-3 antibody. (D) Inhibition of Akt can result in the association of wtMADD with 14-3-3. HEK293 cells were co-transfected with wtMADD along with DN-Akt or pcDNA. […]
# To explore the molecular mechanism by which nonphosphorylated MADD can trigger apoptosis, the cellular localization of phosphorylated and nonphosphorylated MADD was determined. […]
# Immunoprecipitation. […] Immunoblots were prepared and analysed as described above.
Compound,Intermediate active-caspase-8 proteins (p43/41) (caspase-8),"Spontaneous apoptosis (nuclear condensation, mitochondrial depolarization) (HeLa cells)",Phosphorylation of endogenous MADD (MADD),Binding of endogenous MADD to 14-3-3 (14-3-3)
"13L-shRNA: shRNA targeting exon 13L (IG20, MADD), 5′ CGGCGAATCTATGACAATC-3′ (SEQ ID NO: 4)",higher amounts of the intermediate active-caspase-8 proteins (p43/41),"consistently higher in 13L-treated, relative to Mid-treated, cells",–,–
O=c1cc(N2CCOCC2)oc2c(-c3ccccc3)cccc12 [LY],–,–,decreased considerably,"could bind to 14-3-3 only in the presence, but not in the absence, of LY"
